In paper PMC4352280, “Bioactivity guided fractionation and hypolipidemic property of a novel HMG-CoA reductase inhibitor from Ficus virens Ait” (Lipids in Health and Disease, 2015):

Target: T1, HMG-CoA reductase (Homo sapiens, UniProt P04035)
T1 construct: gene HMGCR; catalytic domain of the human enzyme (recombinant GST fusion protein expressed in E. coli)
T1 sequence (P04035 426-888 limits assumed): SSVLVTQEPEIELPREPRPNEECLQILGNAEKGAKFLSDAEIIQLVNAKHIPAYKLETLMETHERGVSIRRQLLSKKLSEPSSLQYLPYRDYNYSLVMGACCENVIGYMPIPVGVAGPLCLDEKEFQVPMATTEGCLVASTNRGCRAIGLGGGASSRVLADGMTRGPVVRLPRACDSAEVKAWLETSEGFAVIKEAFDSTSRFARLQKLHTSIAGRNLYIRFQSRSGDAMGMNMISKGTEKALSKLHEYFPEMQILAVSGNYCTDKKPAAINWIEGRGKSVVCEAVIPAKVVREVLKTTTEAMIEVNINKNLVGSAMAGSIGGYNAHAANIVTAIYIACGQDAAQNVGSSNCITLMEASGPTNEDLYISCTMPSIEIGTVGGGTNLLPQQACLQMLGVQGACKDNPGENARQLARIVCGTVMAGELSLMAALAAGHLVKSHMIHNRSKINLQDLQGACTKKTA
Assay: spectrophotometric HMG-CoA reductase assay; Lineweaver-Burk and Dixon plots
Type: biochemical

## CCCCCCCCCCCCCCCCCCO[C@H]1O[C@H](CO[C@H]2O[C@H](CO)[C@@H](O)[C@H](O)[C@H]2O)[C@@H](O)[C@H](O)[C@H]1O [F18, n-Octadecanyl-O-α-D-glucopyranosyl(6′ → 1″)-O-α-D-glucopyranoside]
  IC50: 0.141 µM
